One block for each molecule: values may come before it.
Experiments:
[1] = test system: Staphylococcus haemolyticus cells; experiment: Gas chromatography assay of cleavage of serine carbonates by axilla bacteria; format: cell-based; settings: 350 nmol of compound, 16-18 hours at 37° C.
Experimental: This example is meant to illustrate, not to limit, the invention.
The synthesized amino acid derivatives were tested for their ability to be cleaved by bacteria normally found in human axilla. A 100 ml culture of Staphylococcus haemolyticus was grown overnight at 37° C. in TSB medium.
The cells were pelleted by centrifuging the culture at 5,000 rpm for 12 minutes, and the pelleted cells were resuspended in sterile saline. The cells were again pelleted and resuspended in sterile saline. After pelleting the cells once again, the cells were weighed and resuspended in sterile assay buffer (50 mM phosphate, pH 6.8, 1% glucose/dextran). The final concentration of cells was 0.05 g cells/ml (for the gas chromatography (GC) assay). These cell suspensions can be stored at 4° C.
The serine carbonate was prepared as stock solution at a concentration of approximately 5 mg/ml in 50 mM potassium phosphate buffer (pH 6.8). If necessary, the pH can be adjusted to 6.8-7.0 with 1N NaOH. The serine carbonate stock solution was sterilized by filtering through 0.22 μm filters.
For a negative control, the cells were incubated with 100 μl sterile phosphate buffer. […] The samples then were extracted into 100 μl chloroform and analyzed by gas chromatography.

[2] = test system: Staphylococcus haemolyticus cells; experiment: Sniff assay: malodor inhibition and fragrance production with axillary malodor precursors; format: cell-based; settings: 0.1% compound with malodor precursors and cells at 37° C., seven judges, 8-point scale
Experimental: The serine carbonate 2-Amino-3-(1,5,7-trimethyl-octyl-oxycarbonyloxy)-propionic acid has been tested in a sniff assay to determine whether, in the presence of Staphylococcus haemolyticus and axillary malodor precursors, production of malodor is inhibited and production of fragrance can be detected. For this assay, axillary washes, which contain malodor precursors, were dried into vials at a concentration sufficient to produce a strong axillary malodor when incubated with Staphylococcus haemolyticus cells. Vials were incubated at 37° C. with Staphylococcus haemolyticus cells. The vials contained […] with 0.1% 2-amino-3-(1,5,7-trimethyl-octyl-oxycarbonyloxy)-propionic acid. Control precursor vials were not incubated with the cells. The mixtures were extracted with chloroform and about 10 μl of the chloroform layers were spotted on bibulous paper. After the chloroform had evaporated, the papers were evaluated for malodor level and fragrance level. Evaluations were done by seven judges who rated malodor or fragrance strength on an 8-point scale from 0 (none) to 7 (extremely strong). Results were calculated as percent change from control malodor or precursor fragrance score.

- melting point: 147 °C
SMILES: CC(C)CCCC(C)C1CCC2C3CC=C4CC(OC(=O)OCC(N)C(=O)O)CCC4(C)C3CCC12C (centres unmarked)

SMILES: CC(CCOC(=O)OCC(N)C(=O)O)CCc1ccccc1 (centres unmarked) [Example 3e, 2-Amino-3-(3-methyl-5-phenyl-pentyloxycarbonyloxy)-propionic acid]
- precursor cleaved by the cells [1]: 40%
- 3-methyl-5-phenyl-pentanol produced by the cell incubation ([1]; pH 6.8, GC analysis): 140 nmols

SMILES: CC(C)CC(C)CCCC(C)OC(=O)OCC(N)C(=O)O (centres unmarked) [Example 3a, 2-Amino-3-(1,5,7-trimethyl-octyloxycarbonyloxy)-propionic acid]
- Malodor drop ([2]; percent change from control malodor score): 50%
- Fragrance increase ([2]; percent change from control precursor fragrance score): 30%
